This is an account of results in PubChem BioAssay (NCI).

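Values below derive from 48-hour exposures of cells grown in 96-well plates, with endpoints linearly interpolated between the two concentrations bracketing the appropriate inhibition level. GI50 = concentration required for 50% inhibition of growth. TGI is the concentration that stops growth completely.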 Where only a bound is given, the exact number is not on record here.

Usually TGI stands for the concentration giving total growth inhibition. A lower TGI goes with greater sensitivity of the cells. In general, GI50 refers to the concentration that inhibits growth by half.

Holding throughout (assay): DTP human tumour cell line panel, 48 h
The test system of assay [1] is M14 melanoma.
Assay [2] concerns CAKI-1 renal.
Assay [3] relates to SNB-75 CNS.
In assay [4] the test system is HOP-92 NSCLC.
Assay [5] has as its system LOX IMVI melanoma.
The test system of assay [6] is SR leukemia.
Assay [7] concerns SF-268 CNS.
For assay [8], the system named is A549 NSCLC.
Assay [9] concerns UACC-257 melanoma.
Assay [10] deals with HCT-15 colon.
Assay [11] deals with OVCAR-4 ovarian.
The subject of assay [12] is BT-549 breast.
Assay [13] has as its system MDA-MB-435.
The subject of assay [14] is U251 CNS.
Assay [15] deals with SK-MEL-5 melanoma.
Assay [16] deals with 786-0 renal.
Assay [17] deals with A498 renal.
Assay [18] concerns HOP-62 NSCLC.
Assay [19] has as its system HS 578T breast.

On to `Cc1ccc(C2N=C(N)NC3=C2CCOc2c3ccc3ccccc23)cc1` (stereo not drawn), for which the concentration for total growth inhibition (TGI) was above 55.9 µM in assay [1]; 28.5 µM in assay [2]; above 78.6 µM in assay [3]; 57.5 µM in [4]; 38.9 µM in assay [5]; above 100 µM in assay [6]. Moreover, the total growth inhibition concentration (TGI) in [7] was above 75.6 µM; in assay [8], above 64.6 µM; in assay [9] it was above 65.7 µM; in assay [10], above 60.1 µM; in assay [11], above 83.7 µM; in [12], above 79.8 µM. The TGI in assay [13] was above 23.4 µM; in assay [14], above 66.9 µM; in assay [15], 30.9 µM; in [16], above 71.7 µM; in assay [17], 41 µM; in [18], 35.1 µM. For the same molecule, the TGI in [19] was 67.7 µM. Further, in assay [5], the GI50 is 9.98 µM.

With `CO/C(=C/C(=O)C(Cl)(Cl)Cl)CC/C(=C\C(=O)C(Cl)(Cl)Cl)OC`, the total growth inhibition concentration (TGI) in [1] is 88.3 µM; in [2], 72.2 µM; in [3] it was above 100 µM; in assay [4], 40.1 µM; in [5], 41.5 µM; in assay [6] it was 51.7 µM. Also, the total growth inhibition concentration (TGI) in assay [7] is above 100 µM; in assay [8], above 100 µM; in [9], 43.8 µM; in assay [10], 73.1 µM; in assay [11], 51 µM; in assay [12] it was 83.2 µM. In addition, the TGI in [13] is 53.4 µM; in assay [14], 54.7 µM; in assay [15] it was above 100 µM; in assay [16] it was 60.4 µM; in assay [17], above 100 µM; in assay [18], 49.5 µM. In assay [19], the TGI was above 100 µM.

Turning to `C=CCc1cc(C=C(C#N)C#N)cc(OC)c1O`, the TGI in assay [1], in assay [2], in assay [3], in assay [4], in assay [5] and in assay [6] was above 100 µM each time. For the same molecule, the TGI in assay [8], in assay [9], in assay [10], in [11], in [12] and in [13] was above 100 µM in each case. Moreover, the concentration for total growth inhibition (TGI) in [14], in assay [15], in assay [16], in assay [17] and in [19] was above 100 µM throughout.

For `c1ccc(-c2nnc(SCc3c[nH]c4ccccc34)n2-c2ccccc2)cc1`, the concentration for total growth inhibition (TGI) in [1] was above 100 µM; in assay [2], above 100 µM; in assay [3], 57.6 µM; in assay [4], 79.3 µM; in assay [5], above 100 µM; in assay [6] it was above 100 µM. The total growth inhibition concentration (TGI) in [7] is above 100 µM; in [8] it was above 100 µM; in assay [9], above 100 µM; in assay [10] it was above 100 µM; in [11], above 100 µM; in [12], 98.7 µM. In addition, the TGI in [13] is above 100 µM; in assay [14], above 100 µM; in assay [15] it was 61 µM; in assay [16] it was above 100 µM; in assay [17], 56 µM; in assay [18], above 100 µM. Further, in assay [19], the TGI was determined as 93.5 µM.

For `CCCCCCCNC(P(=O)(O)O)P(=O)(O)O`, the TGI was above 100 µM in [1]; above 100 µM in assay [2]; 43.3 µM in assay [3]; above 100 µM in assay [4]; above 100 µM in [5]; above 100 µM in assay [6]. For the same molecule, the concentration for total growth inhibition (TGI) in assay [7], in assay [8], in [9], in [10], in [11] and in assay [12] was above 100 µM throughout. Moreover, the TGI in assay [13], in assay [14], in assay [15], in [16], in assay [17] and in assay [18] was above 100 µM each time. The same molecule yielded a TGI in assay [19] of 97.5 µM.

Turning to `Cc1[nH]n(C(=N)N)c(=O)c1CCO`, the concentration for total growth inhibition (TGI) in [1], in assay [2], in assay [3], in [4], in [5] and in assay [6] was above 100 µM throughout. Also, the TGI in [7], in [8], in assay [9], in assay [10], in assay [11] and in assay [12] was above 100 µM each time. Besides, the TGI is above 100 µM in [13]; above 100 µM in assay [14]; above 100 µM in assay [15]; 3.08 µM in assay [16]; above 100 µM in [17]; above 100 µM in assay [18]. The same molecule displayed a total growth inhibition concentration (TGI) in [19] above 100 µM.

For the molecule `CSc1c(C(=O)Nc2ccc(C)cc2)c(N)n(N)c(=O)c1C#N`, the TGI in assay [1], in assay [2], in assay [3], in [5], in [6] and in [7] was above 100 µM each time. The concentration for total growth inhibition (TGI) in [8], in assay [9], in [10], in assay [11], in assay [12] and in assay [13] was above 100 µM throughout. The TGI in [14], in assay [15], in assay [16], in assay [17] and in assay [19] was above 100 µM in each case.

On to `COC(=O)/C=C(/C(=O)OC)c1cc2ccc3c([nH]c4ccccc43)c(C)c-2c1`, for which the TGI in assay [1] was 16 µM; in [2], above 100 µM; in [3], 59.2 µM; in assay [4], 5.43 µM; in assay [5], 14.5 µM; in assay [6], 8.59 µM. In addition, the total growth inhibition concentration (TGI) in [7] was 21.4 µM; in assay [8] it was above 100 µM; in assay [9], 28.2 µM; in assay [10], 29 µM; in assay [11] it was 69.3 µM; in assay [12] it was 23.1 µM. For the same molecule, the TGI in assay [13] was determined as 25.1 µM; in assay [14] it was 18.1 µM; in [15], 9.18 µM; in assay [16] it was 20.1 µM; in assay [17], 23.5 µM; in assay [18], 37.5 µM. Also, the total growth inhibition concentration (TGI) in assay [19] came out at 8.91 µM.

`Cc1c(/C=N/NC(=S)Nc2ccccc2)c(=O)n(-c2ccccc2)n1C`: the TGI in assay [1], in [2], in assay [3], in assay [4], in assay [5] and in [6] was above 100 µM in each case. For the same molecule, the TGI in [7], in assay [9], in [10], in assay [11], in assay [12] and in assay [13] was above 100 µM in each case. Moreover, the concentration for total growth inhibition (TGI) in assay [14], in assay [15], in assay [16], in [17], in assay [18] and in [19] was above 100 µM in each case.

Turning to `CCOC(=O)NC(C(=O)OCC)(N1CCN(c2cc3c(cc2F)c(=O)c(C(=O)O)cn3CC)CC1)C(F)(F)F` (stereo not drawn), the concentration for total growth inhibition (TGI) in assay [1], in [2], in assay [3], in [4], in [5] and in [6] was above 100 µM in each case. The TGI in [7], in assay [8], in assay [9], in assay [10], in assay [11] and in assay [12] was above 100 µM each time. The TGI in [13], in [14], in [15], in assay [16], in [17] and in assay [18] was above 100 µM in each case. This molecule registered a TGI in assay [19] above 100 µM.

Regarding `CC(=O)Nc1ccc(-c2nc3ccccc3s2)cc1C`, the TGI was above 100 µM in assay [1]; 59 µM in assay [2]; above 100 µM in [3]; above 100 µM in [4]; above 100 µM in assay [5]; above 100 µM in [6]. Further, the TGI in assay [7], in assay [9], in assay [10], in assay [11], in assay [12] and in [13] was above 100 µM in each case. Further, the concentration for total growth inhibition (TGI) in assay [14] was above 100 µM; in [15] it was above 100 µM; in assay [16], above 100 µM; in assay [17] it was 21.6 µM; in [18] it was above 100 µM; in [19] it was above 100 µM.

As for `O=C1CCCC(=O)N1n1c(Cc2ccccc2)n[nH]c1=O`, the total growth inhibition concentration (TGI) in assay [1], in [2], in assay [3], in assay [4], in assay [5] and in assay [6] was above 100 µM each time. Also, the concentration for total growth inhibition (TGI) in assay [7], in assay [8], in assay [9], in assay [10], in [11] and in assay [12] was above 100 µM each time. For the same molecule, the TGI in [13], in assay [14], in [15], in assay [16], in [17] and in assay [18] was above 100 µM in each case. Besides, in [19], the TGI is above 100 µM.

Take `COc1cc(C(=O)C2C(=O)c3ccccc3C2C2(O)c3ccccc3CC2C(O)c2cc(OC)c(OC)c(OC)c2)cc(OC)c1OC` (stereo not drawn): the concentration for total growth inhibition (TGI) in [1] is above 100 µM; in assay [2] it was above 100 µM; in assay [3], 94.3 µM; in [4] it was above 100 µM; in assay [5], above 100 µM; in assay [6], above 100 µM. Also, the TGI in [7], in [8], in [9], in assay [10], in assay [11] and in [12] was above 100 µM each time. Further, the TGI in [13], in assay [14], in [15], in assay [16], in assay [17] and in assay [18] was above 100 µM in each case. The molecule also returned a total growth inhibition concentration (TGI) in assay [19] above 100 µM.

For the molecule `CCOC(=O)/C(N=Nc1ccc(-n2c(C)nc3ccc(Br)cc3c2=O)cc1)=C(/C)O`, the TGI in assay [1] was above 100 µM; in assay [2], above 100 µM; in assay [3], 86.7 µM; in [4] it was above 100 µM; in [5], above 100 µM; in assay [6] it was above 100 µM. The total growth inhibition concentration (TGI) in [7], in [8], in assay [9], in [10], in assay [12] and in assay [13] was above 100 µM throughout. The TGI was above 100 µM in assay [14]; 31.9 µM in assay [15]; above 100 µM in [16]; above 100 µM in assay [17]; above 100 µM in [18]; 70.7 µM in assay [19].

In the case of `S=C(N/N=C/c1ccccn1)Nc1ccc(Cl)cc1`, the TGI in assay [2] was 30.5 µM; in assay [3], 8.74 µM; in [4], above 57.6 µM; in assay [5], above 35.3 µM; in assay [6], above 100 µM; in assay [7] it was above 45.7 µM. The TGI in assay [8] is above 65.4 µM; in assay [9], above 100 µM; in assay [10] it was above 100 µM; in [11], above 100 µM; in assay [12], above 68.1 µM; in [13] it was above 100 µM. For the same molecule, the TGI is 8.3 µM in assay [14]; 15.5 µM in assay [15]; 16.1 µM in assay [16]; 59.9 µM in assay [17]; 17.4 µM in assay [18]; above 67.2 µM in assay [19].
